Results published in US20240252677A1, “ONE-COMPONENT DELIVERY SYSTEM FOR NUCLEIC ACIDS” (The Trustees of the University of Pennsylvania, priority 2021, published 2024).
One block for each compound: values may come before it.

Legend:
[1] = DLS size of dendrimersomes assembled from glycerol-JDs in water at different concentrations; type: physicochemical; conditions: for Dh (nm): size distribution by intensity
Experimental: Assembly of all eight glycerol-JDs was performed by injection of their ethanol solution (50 μL) into 1 mL of Milli-Q water. The size distribution and structure of resulting DSs were analyzed by DLS (FIG. 84) and cryo-TEM. […] In a certain concentration range the size of DSs increased with the concentration of JDs injected in water or buffer. […] The dimensions of the assemblies were identical when the concentrations of the JDs in water were identical. Sizes of assemblies from mixtures of 1R and 1S in different ratios (1:3, 1:1 and 3:1), were also identical (FIG. 84). […] With the exception of the rotation of polarized light, the physical properties of enantiomers and their racemic mixtures must be identical.
Dynamic light scattering (DLS). Hydrodynamic diameters (Dh) of the self-assemblies of dendrimer molecules and their size distributions were measured on a Malvern Instruments particle sizer (Zetasizer® Nano S, Malvern Instruments, UK) equipped with 4 mW He—Ne laser (633 nm) and avalanche photodiode positioned at […] to the beam and temperature controlled cuvette holder. Experiments were performed at 25° C. in triplicate. The distribution of radius was intensity.

[2] = Cryo-TEM of dendrimersomes from glycerol-JDs, number of vesicle layers; type: physicochemical
Description: The red numbers in FIG. 85 stand for the unilamellar while yellow numbers for multilamellar DSs. The calculated percentages of unilamellar DSs in the selected images for 2R, 2S and 2rac are 91%, 70% and 13%, respectively. Same trend was found for cryo-TEM of 1R, 1S and 1rac (FIG. 86 through FIG. 88). […] Achiral DSs are all unilamellar.
Cryogenic Transmission Electron Microscopy (Cryo-TEM). Morphologies of the Janus Dendrimer assemblies were characterized by cryo-TEM. Images were acquired on a Carl Zeiss Libra 120 microscope. Samples were prepared by plunge freezing of aqueous dispersion on plasma-treated lacey grids. The vitrified specimens were then transferred to a Gatan-910 cryoholder. The 5 images were recorded at −170° C. with an acceleration voltage of 120 kV. The concentration of JD in the aqueous solution of DSs was 1 mg mL-^1.

[3] = Dimensions (size, PDI) of DNPs co-assembled from IAJDs and Luc-mRNA by DLS; type: physicochemical; conditions: CIAJD 4 mg/mL
Experimental: Dynamic Light Scattering (DLS) for the DNPs was performed in buffer with a Malvern Instruments particle sizer (Zetasizer Nano S, Malvern Instruments, UK) equipped with 4 mW He—Ne laser 633 nm and avalanche photodiode positioned at […] to the beam and temperature-controlled cuvette holder. Instrument parameters were determined automatically along with measurement times.
Formulation of DNPs Containing mRNA-Luc: IAJDs were dissolved in ethanol with various initial concentrations (5-160 mg/mL). Nucleoside-modified mRNA encoding firefly luciferase (mRNA-Luc) was dissolved in water with various initial concentrations (1-4 mg/mL). 12.5 μL of mRNA solution was placed into a clean RNAs free eppendorf (1.5 mL) and mixed with 463 μL of citrate buffer (10 mM, pH 3.0)/acetate buffer (10 mM). For encapsulation of mRNA into IAJDs, 25 μL of IAJDs of the ethanol stock solution was rapidly injected into mRNA solution in citrate or acetate buffer followed by vortex for 5 seconds.
(§1) Dynamic Light Scattering (DLS) for the sizes and polydispersities of DNPs was performed on a Malvern Instruments particle sizer (Zetasizer Nano S, Malvern Instruments, UK) equipped with 4 mW He—Ne laser 633 nm and avalanche photodiode positioned at 1750 to the beam and temperature-controlled cuvette holder. Instrument parameters were determined automatically along with measurement times. Sample solution (0.4 mL) was placed in a semi-micro cuvette (1.6 mL, polystyrene, 10×10×45 mm, manufactured by Greiner Bio-One) and the measurements were performed at 23° C.
Formulation of DNPs obtained by co-assembly of IAJDs and Luc-mRNA was performed as follows. IAJDs were dissolved in ethanol with an initial concentration of 80 mg/mL. Nucleoside-modified mRNA encoding firefly luciferase (Luc-mRNA) was dissolved in UltraPure DNase/RNase-free distilled water with an initial concentration of 4.0 mg/mL. 12.5 μL of Luc-mRNA solution was placed into a clean RNAs free eppendorf (1.5 mL) and 463 μL acetate buffer (10 mM, pH 4.0) was added. Then, 25 μL of IAJD in the ethanol stock solution was rapidly injected into the Luc-mRNA solution in acetate buffer followed by vortex for 5 seconds.
as §1, with “dimensions (sizes” for “sizes”, “polydispersities)” for “polydispersities”, “175°” for “1750”, “set up” for “determined”, “(c.a. 0.4” for “(0.4”, “mm,” for “mm, manufactured by”
Formulation of DNPs Co-assembled from IAJDs and Luc-mRNA: nucleoside-modified mRNA encoding firefly luciferase (Luc-mRNA) was dissolved in UltraPure DNase/RNase-free distilled water with an initial concentration of 4.0 mg/mL. IAJD molecules were dissolved in ethanol with an initial concentration of 80 mg/mL. 12.5 μL of Luc-mRNA solution was taken and placed into a clean RNAs free eppendorf (1.5 mL). Then 463 μL of acetate buffer (10 mM, pH 4.0) was added. Afterwards, 25 μL of IAJD in the ethanol stock solution was taken and rapidly injected into the above Luc-mRNA solution in acetate buffer followed by vortex for 5 seconds.

[4] = system: HEK293T cells; assay: In vitro Luc-mRNA transfection, luciferase luminescence expression in HEK293T cells; type: cell-based, human; design: unit not given here; conditions: CIAJD 4 mg/mL, HEK293T, 125 ng/well
Experimental: In Vitro Transfection Activity of DNPs in Human Embrionic Kidney (HEK) 293T Cells: HEK293T cells were seeded into 96-well plates (20,000 cells/well/200 μL) and cultured for 24 h at 37° C. in 5% CO2 complete cell culture media. Screening experiments were performed with nonoptimized DNPs containing naked nucleoside-modified mRNA (Karikó, et al., Immunity 2005, 23, 165-175; Pardi, et al., Methods Mol. Biol. 2013, 969, 29-42), of molar mass 664,341 encoding firefly luciferase (mRNA-Luc). A constant concentration of mRNA-Luc of 125 ng/well was used. The transIT (TransIT-mRNA transfection Kit from Mirus Bio) and MC3-based LNPs (MC3: DLin-MC3-DMA, which is the FDA approved LNP for mRNA delivery) were used as positive controls for cell transfection at a concentration of mRNA-Luc of 125 ng/well, identical to that of the tested DNPs. Subsequently cells were cultured for 24 h, the medium was aspirated under reduced pressure by a glass pipette and cells were lysed with 30 μL/well of cell culture lysis reagent (Promega). The luminescence intensity corresponding to the luciferase protein expressed was characterized and analyzed.
In vitro mRNA Delivery: Human embryonic kidney (HEK) 293T cells (American Type Culture Collection) were cultured in Dulbecco's modified Eagle's medium (DMEM) supplemented with 10% inactivated fetal bovine serum (FBS) (Gemini Bio-Products), 2 mM L-glutamine and 100 U/mL penicillin/streptomycin (Life Technologies) (complete medium). For in vitro screening experiments, HEK293T cells were seeded into 96-well plates (20,000 cells/well/200 μL) and cultured for 24 h in at 37° C. and 5% CO2 in complete media. Cell were transfected with IAJDs with encapsulated naked nucleoside-modified mRNA encoding firefly luciferase (mRNA-Luc) with fixed concentration of mRNA-Luc, 125 ng per well. The transIT (TransIT®-mRNA Transfection Kit, Mirus Bio) was used as a positive control for cell transfection, accordingly per manufacturer protocol and added to cells at the concentration of mRNA-Luc, 125 ng per well, the same as for tested particles. Cells were further cultured for 24 h, then medium was aspirated, and cells were lysed with 30 μL/well of cell culture lysis reagent (Promega). For the characterization of luminescence intensity, 2.5 μL of the lysed cells was mixed with 10 μL of luciferase assay substrate and luminescence was analyzed using a MiniLumat LB 9506 luminometer (Berthold/EG&G; Wallac).
Luminescence characterization for in vitro transfection experiments was performed by determining the luminescence intensity for in vitro Luc-mRNA transfection experiments using a MiniLumat LB 9506 luminometer (Berthold/EG&G; Wallac).
For in vitro Luc-mRNA transfection screening experiments, human embryonic kidney 293 cells (HEK 293) were seeded into 96-well plates (20,000 cells/well/200 μL) and cultured for 18-20 hours at 37° C., 5% CO2 in complete Dulbecco's modified Eagle's medium (DMEM) supplemented with 2 mM L-glutamine (Life Technologies), 100 U/mL penicillin/streptomycin (Invitrogen) and 10% fetal bovine serum (FBS, Gemini Bio-Products). Cells were transfected with DNPs with encapsulated naked nucleoside-modified mRNA encoding firefly luciferase (Luc-mRNA) at constant concentration of Luc-mRNA, 125 ng per well. Luc-mRNA complexed with TransIT (TransIT®-mRNA Transfection Kit, Mirus Bio) or encapsulated in FDA approved MC3-based LNPs were used as positive controls for cell transfection, at the concentration of Luc-mRNA of 125 ng per well, the same as for tested DNPs. After transfection cells were further cultured at 37° C., 5% CO2 for 18-20 hours, then medium was aspirated and cells were lysed with luciferase cell culture lysis reagent (30 μL/well) (Promega, Madison, WI). […]

[5] = Acetate buffer 10 mM pH 4.0, CLuc-mRNA 0.05 mg/mL
[6] = Acetate buffer 10 mM pH 5.2, CLuc-mRNA 0.10 mg/mL
[7] = Citrate buffer 10 mM pH 3.0, CLuc-mRNA 0.05 mg/mL

PDI ([1]; JD 0.025 mg·mL−1 in water): 0.398
Dh (nm) ([1]; JD 0.025 mg·mL−1 in water): 86 nm
PDI ([1]; JD 0.05 mg·mL−1 in water): 0.277
Dh (nm) ([1]; JD 0.05 mg·mL−1 in water): 109 nm
PDI ([1]; JD 0.1 mg·mL−1 in water): 0.268
Dh (nm) ([1]; JD 0.1 mg·mL−1 in water): 123 nm
PDI ([1]; JD 0.15 mg·mL−1 in water): 0.232
Dh (nm) ([1]; JD 0.15 mg·mL−1 in water): 128 nm
PDI ([1]; JD 0.2 mg·mL−1 in water): 0.216
Dh (nm) ([1]; JD 0.2 mg·mL−1 in water): 136 nm
PDI ([1]; JD 0.25 mg·mL−1 in water): 0.238
Dh (nm) ([1]; JD 0.25 mg·mL−1 in water): 142 nm
PDI ([1]; JD 0.3 mg·mL−1 in water): 0.203
Dh (nm) ([1]; JD 0.3 mg·mL−1 in water): 153 nm
PDI ([1]; JD 0.4 mg·mL−1 in water): 0.275
Dh (nm) ([1]; JD 0.4 mg·mL−1 in water): 174 nm
PDI ([1]; JD 0.5 mg·mL−1 in water): 0.240
Dh (nm) ([1]; JD 0.5 mg·mL−1 in water): 281 nm
Number of vesicle layers: 1 (count of vesicles) ([2]; vesicles with 1 layer): 7
Number of vesicle layers: 2 (count of vesicles) ([2]; vesicles with 2 layers): 6
Number of vesicle layers: 3 (count of vesicles) ([2]; vesicles with 3 layers): 2
Number of vesicle layers: 4 (count of vesicles) ([2]; vesicles with 4 layers): 1
Number of vesicle layers: 5 (count of vesicles) ([2]; vesicles with 5 layers): 1
Number of vesicle layers: 6 (count of vesicles) ([2]; vesicles with 6 layers): 3
Compound: CCCCCCCCCCCCOc1cc(OCCCCCCCCCCCC)cc(C(=O)OCC(COC(=O)C(C)(COC(=O)c2cc(OCCOCCOCCOC)c(OCCOCCOCCOC)c(OCCOCCOCCOC)c2)COC(=O)c2cc(OCCOCCOCCOC)c(OCCOCCOCCOC)c(OCCOCCOCCOC)c2)OC(=O)c2cc(OCCCCCCCCCCCC)cc(OCCCCCCCCCCCC)c2)c1 (racemic) [Compound 1rac, (3,5)-12G1-GC-(rac)-BMPA-(3,4,5)-3EO-G1]

PDI [3, 5]: 0.330
Size (d, nm) [3, 5]: 58 nm
PDI [3, 6]: 0.284
Size (d, nm) [3, 6]: 178 nm
PDI [3, 7]: 0.460
Size (d, nm) [3, 7]: 61 nm
Compound: (3,5)-12G2-BMPA-GC-(achiral)-(3,4,5)-3EO-G1 [Compound 4]
Luminescence [4, 5]: 3,283
Luminescence [4, 6]: 1,613
Luminescence [4, 7]: 2,063
